Reference: patent US12497412B2 (GUANGZHOU JOYO PHARMATECH CO., LTD, priority 2019, dated 2025)
Where two headings read alike, the source gives them in different places.

Experiments:
[1] = Cassette pharmacokinetics test in mice; assay type: in vivo, male CD-1 mice; details: cassette dosing; for C0 / Vd / AUC(0-t) / half-life / bioavailability / Cmax / Tmax: male, CD-1, mouse, plasma; for C0: read-out: Starting concentration C0; for Vd: read-out: Apparent volume of distribution Vd; for AUC(0-t): read-out: Area under curve AUC0-last; for half-life: read-out: Half-life T1/2 (converted); for bioavailability: PO 2.5 mpk vs IV 0.5 mpk, read-out: Bioavailability F %; for Cmax: read-out: Peak concentration Cmax; for Tmax: read-out: Peak time Tmax
Source text: Experimental objective: To study the pharmacokinetic behavior of the compounds of the present disclosure in mice, and evaluate its pharmacokinetic characteristics by taking 7-9 week-old male CD-1 mice as the test animals and using a LC/MS/MS method to determine the drug concentration of the compounds in plasma at different time after single intravenous injection (IV) and gavage (PO) administration.
Drug preparation: Compounds were formulated into clear solutions with 5% DMSO+10% solutol+85% water as the solvent for IV (intravenous) and PO (gavage) group administration. The dosing method was cassette dosing, and the dosage of each compound was IV 0.5 mg/kg; the dosage of PO was 2.5 mg/kg.

[2] = test system: Ba/F3 SLC34A2-ROS1-G2032R stably transfected cell line; assay: Cell proliferation inhibition (CellTiter-Glo), Ba/F3 SLC34A2-ROS1-G2032R; assay type: cell-based; details: Mus musculus, BaF3; 72 hours, CTG; read-out: Cell half inhibitory concentration IC50, Ba/F3 SLC34A2-ROS1-G2032R
Procedure: (§1) Adenosine Tri-Phosphate (ATP) is an energy carrier shared by all kinds of life activities in nature, and it is the smallest unit of energy storage and transfer. The CellTiter-Glo™ living cell test reagent kit uses luciferase as the detector, and luciferase requires the participation of ATP in the process of luminescence. CellTiter-Glo™ reagent was added to a cell culture medium, and the luminescence value was measured. The light signal was directly proportional to the amount of ATP in the system, and ATP was positively correlated with the number of living cells. Therefore, cell proliferation can be detected by detecting ATP content with the CellTiter-Glo kit. In this test, the cell lines were Ba/F3 SLC34A2-ROS1-WT, Ba/F3 SLC34A2-ROS1-G2032R, Ba/F3 LMNA-NTRK1-WT stably transfected cell lines, with a number of 5000 cells/well.
(§2) a) Cells in logarithmic growth phase were harvested and counted using a […] counter. Cell viability was detected by trypan blue exclusion method to ensure that the cell viability was above 90%.
(§3) b) Cell concentration was adjusted; 90 μL of cell suspension was added to a 96-well plate respectively.
(§4) c) Cells in the 96-well plate were cultured overnight at 37° C., 5% CO2, and 95% humidity.
(§5) a) A 10-fold drug solution was prepared with a maximum concentration of 10 μM, 9 concentrations and 3-fold dilution; 10 μL of drug solution was added to each well in the 96-well plate seeded with cells, and three duplicate wells were set for each drug concentration.
(§6) b) Cells in the dosed 96-well plate were incubated at 37° C., 5% CO2, and 95% humidity for a further 72 hours, and then CTG analysis was performed.
(§7) a) CTG reagent was melt and the cell plate was equilibrated to room temperature for 30 minutes.
(§8) b) An equal volume of CTG solution was added to each well.
(§9) c) Cells were lysed by shaking on an orbital shaker for 5 minutes.
(§10) d) The cell plate was placed at room temperature for 20 minutes to stabilize the luminescent signal.
(§11) e) The luminescence value was read.
(§12) The data were analyzed using GraphPad Prism 5.0 software, and a dose-effect curve was obtained by fitting the data using a nonlinear S-curve regression, from which IC50 values were calculated.

[3] = test system: Ba/F3 SLC34A2-ROS1-WT stably transfected cell line; assay: Cell proliferation inhibition (CellTiter-Glo), Ba/F3 SLC34A2-ROS1; assay type: cell-based; details: Mus musculus, BaF3; 72 hours, CTG; read-out: Cell half inhibitory concentration IC50, Ba/F3 SLC34A2-ROS1
Procedure: as §1, §2, §3, §4, §5, §6, §7, §8, §9, §10, §11, §12

| Compound | Apparent clearance rate Cl ([1]; IV 0.5 mpk) | Drug concentration in cerebrospinal fluid at 0.5 hours CSF@0.5 h ([1]; PO 2.5 mpk, CSF) | Drug concentration in cerebrospinal fluid at 2 hours CSF@2 h ([1]; PO 2.5 mpk, CSF, 2 h) | Drug concentration in brain at 0.5 hours Brain@0.5 h ([1]; PO 2.5 mpk) | Drug concentration in brain at 2 hours Brain@2 h ([1]; PO 2.5 mpk, 2 h) | Drug concentration in lung at 0.5 hours Lung@0.5 h ([1]; PO 2.5 mpk) | Drug concentration in lung at 2 hours Lung@2 h ([1]; PO 2.5 mpk, 2 h) | C0 ([1]; 0.5 mg/kg, IV 0.5 mpk) | Vd ([1]; 0.5 mg/kg, IV 0.5 mpk) | AUC(0-t) ([1]; 0.5 mg/kg, IV 0.5 mpk) | half-life ([1]; 0.5 mg/kg, IV 0.5 mpk) | bioavailability ([1]; 2.5 mg/kg) | AUC(0-t) ([1]; 2.5 mg/kg, PO 2.5 mpk) | Cmax ([1]; 2.5 mg/kg, PO 2.5 mpk) | Tmax ([1]; 2.5 mg/kg, PO 2.5 mpk) | IC50 [2] | IC50 [3] |
| --- | --- | --- | --- | --- | --- | --- | --- | --- | --- | --- | --- | --- | --- | --- | --- | --- | --- |
| C[C@H]1Oc2cc(cnc2N)-c2c(nn(C)c2C#N)CN(C)C(=O)c2ccc(F)cc21 [Lorlatinib] | 9.96 mL/min/kg | 105 nmol/kg | 145 nmol/kg | 622 nmol/kg | 896 nmol/kg | 1344 nmol/kg | 2016 nmol/kg | 905 nM | 1.79 L/kg | 1.9 µM·h | 2.39 h | 143% | 13.5 µM·h | 3220 nM | 0.5 h | – | – |
| CN1CCN(c2ccc(C(=O)Nc3n[nH]c4ccc(Cc5cc(F)cc(F)c5)cc34)c(NC3CCOCC3)c2)CC1 [Entrectinib] | 6.83 mL/min/kg | – | – | 12.7 nmol/kg | 38.9 nmol/kg | 876 nmol/kg | 5958 nmol/kg | 1280 nM | 1.39 L/kg | 1.91 µM·h | 2.52 h | 45.7% | 4.36 µM·h | 690 nM | 2 h | – | – |
| C[C@H]1CNC(=O)c2cnn3ccc(nc23)N[C@H](C)c2cc(F)ccc2O1 [TPX-0005, Repotrectinib] | 18.0 mL/min/kg | 5.46 nmol/kg | – | 42.2 nmol/kg | 86.2 nmol/kg | 1131 nmol/kg | 1434 nmol/kg | 936 nM | 5.26 L/kg | 1.28 µM·h | 4.38 h | 166% | 10.6 µM·h | 3360 nM | 0.5 h | 13 nM | 1.9 nM |
